Read-outs that look alike come from different tables or passages of the source. Square brackets hold non-standard residues; d marks the D form. Ends that are not written are not given here. Phe(4-NO2) = N[C@@H](Cc1ccc([N+](=O)[O-])cc1)C(=O)O; dDab = NCC[C@@H](N)C(=O)O
How the values were obtained:
[1] = tested on: CD-1 male mice; assay: Analgesic activity in vivo, hot plate method; design: species or system mouse; details: for analgesic effect in words: hot plate
Protocol: Male Swiss albino mice (CD1), weighing 20-22 g were used throughout the study. The animals were housed in solid bottom polycarbonate cages with access to standard laboratory diet (Laboratory Rodent Diet PK-120) and tap water ad libitum, under controlled environmental conditions (temperature:18-26° C., 8 a.m. to 8 p.m. light-dark cycle). Mice were tested only once.
The Hot-plate-meter represents the thermostatic controllable, electro-heated up surface limited by transparent walls (L: 25 cm, W: 25 cm, H: 35 cm). The forward panel of the device is equipped by buttons for the control of time and a temperature mode (Columbus Instruments).
The i.v. administration was performed via tail vein as a bolus injection. The doses for all animals were calculated on the basis of the last value of the individual body weight.
The animals accurately were placed on the preheated hot plate (55±0.5° C.) after i.v. injection of saline or peptides and the latencies to first paw licking and first jumping were measured. The other behavioral reactions were ignored. The animals were removed from a hot surface after the first jumping. A cut-off time of 180 s was used to avoid tissue damage.
To evaluate the hot-plate test responses, the control latencies (t0) and test latencies (t1) were determined after injection of saline or peptides, respectively. The percentage of the maximal possible effect (% MPE) was calculated as % MPE=(t1−t0)/(t2−t0)×100, where the cut-off time (t2) was 180 s.
The latency for the first jumping is considered as the most indicative in the hot-plate test. The area under the time-response curve was calculated by methods described elsewhere (Cicero and Meyer, 1973), to assess the magnitude of antinociception (FIG. 5, see appendix).
The median analgesic dose (ED50) also has been calculated for this parameter.

[2] = tested on: outbreed male mice; assay: Analgesic activity in vivo, tail pinch method; design: species or system mouse; details: for Duration of analgesic effect at ED60-80 / ED50 nmol/animal (dose interval) / Relative analgesic activity morphine = 1: intracisternal administration
Protocol: Analgesic activity of enkephalin analogues was determined by a “tail pinch” method [Ueda H.; Amano H.; Shiomi H.; Takagi H. (1979). Eur. J. Pharmacol., 56, 265-268]. […] Ten mice were used in each experiment.
The studied substances were dissolved in sterile physiological solution and injected in J-shaped needles into the brain of conscious mice at a dose of 10 μl. Control animals received 10 μl of sterile physiological solution. Intravenous administration was into the tail vein. Analgesic activity was tested by pinching the mouse tail with an artery clip with 200 g pressure. The mice who bit the clip within one second after application of pinching were selected for assays. Analgesic activity was defined as latency on the biting response greater than 6 sec. The analgesic tests were performed 5, 15, 30, 60 and 90 min after administration and then every 30 min until the analgesic reaction was stopped. The analgesic activity of the peptides was expressed as a percentage of mice not showing the biting response.

[3] = tested on: rats with ligature of coronary arteries; format: in vivo, rat; design: myocardial necrosis size: unit not given here
[4] = biological target: T1, peripheral opiate receptors, guinea pig ileum (GPI, predominantly μ-type of opioid receptor) (Cavia porcellus, UniProt A0ACM8Q262); details: [Leu^5]-enkephalin = 100
T1 construct: other: guinea pig ileum longitudinal muscle, electrical stimulation; GPI Relative potency, %; other: GPI assay

[5] = tested on: peripheral opiate receptors, guinea pig ileum (GPI, predominantly μ-type of opioid receptor); details: ratio of relative potencies GPI to MVD
[6] = tested on: peripheral opiate receptors, mouse vas deferens (MVD); assay: MVD bioassay, suppression of electrically induced contraction
Protocol: Brit. J. Pharmacol., 35, 10-28]. The longitudinal muscle of ileum from guinea pig of any sex (weight 350-500 g) was carefully separated from underlying circular muscle and placed into a small bath with Krebs solution at 36° C.
The solution was constantly aerated. A constant load of 0.2 g was applied to the tissue. The tissue was stimulated by means of the ring platinum electrodes by single impulses of […] duration with 0.1 Hz frequency. […] Vas deferens of mice (weight 27 to 30 g) were placed into a bath with modified Krebs solution (not containing magnesium sulphate) at 31° C. The substances under study were dissolved in distilled water. The inhibiting activity of the compounds was determined by accumulating doses, adding increasing concentrations of the compounds without washing. The activity of the preparations was expressed as IC50 in nmol/l. The results obtained in 8-10 tests were statistically processed using Student's criterion.

[7] = tested on: BALB mice under normobaric hypoxic hypoxia; assay: Antihypoxic action, lifetime of mice under normobaric hypoxic hypoxia; format: in vivo, mouse
Protocol: Antihypoxic action of the new enkephalin analogue (1) was determined by the measurement of lifetime duration in mice under the normobaric hypoxic hypoxia conditions.
The experiments were conducted on BALB-bread mice weighing 20 to 22 g. The normobaric hypoxic hypoxia conditions were modelled by placing the animals in hermetic camera, containing Ca(OH)2 to absorb the excess of carbon dioxide. The substances studied were injected intraperitoneally 1 min. before the placing of animals in the hermetic camera. The peptides were used at doses 1.0 mg/kg. […] Sodium oxybutyrate at highest therapeutic dose was used as comparative compound. The lifetime was estimated as the time when the animals stopped making breathing movements.

[8] = tested on: male Sprague-Dawley rats, left coronary artery occlusion (LCAO); assay: Cardiac ischemia rat model, left coronary artery occlusion 25 min / reperfusion 120 min, infarct size; format: in vivo
Protocol: Male Sprague-Dawley (CD) rats weighing 280-380 g were used throughout this study. The rats were anesthetized by i.p. administration of urethane (1-1.5 g/kg). A tracheotomy was performed, and the trachea of the animal was intubated with a cannula connected to a rodent ventilator (model UGO BASILE 7025). Body temperature was maintained at 37° C. by use of a heating pad and monitored using rectally placed temperature probes connected to a digital thermometer. Body temperature is monitored and maintained at 37±1° C.)
The femoral artery was isolated and cannulated to measure blood pressure (BP) by a BP transducer (model PN:1891-E45, DTX™, Singapore) connected with computer. Mean arterial pressure and heart rate was calculated by special software. The right femoral vein was cannulated to allow administration of peptides or saline and methylene blue dye.
A left thoracotomy was performed to expose the heart at the fifth intercostal space. The pericardium was removed and a suture was placed under the left coronary artery in the groove between the pulmonary outflow track and left ventricle. With the tubing placed on the myocardial surface, the ligature could be tightened around the left coronary artery and clamped to provide a readily reversible occlusion of blood flow. Hemodynamics and body temperature were monitored during the procedure.
The protocol of experiments conducted in urethane-anesthetized open-chest rats subjected to regional myocardial ischemia-reperfusion is illustrated in FIG. 1 (see appendix).
All animals were subjected to 25 minutes of occlusion and 2 hours of reperfusion. Several doses (0.1 μg/kg-1 μg/kg) of the peptide (4) were given 5 minutes before occlusion. The coronary artery in all rats was occluded by pulling up on the suture and clamping it with plastic tube. At 25 minutes, the clump was released and coronary artery reperfusion was allowed. The surface of the left ventricle pinks up. After 120 min of reperfusion, the ligature was again tightened to occlude the left coronary artery, and […] methylene blue dye (0.4 ml of 10% w/v in saline) was injected. Once the dye had stained the heart, except in the area at risk, clearly demarcating the total area at risk (AAR), the heart was then quickly removed from the animal and washed out in a water, and the atria, valvular material and right ventricular wall were removed leaving just the left ventricle. The left ventricle was then sectioned transversely into 2-mm slices. The area defined as normal (dyed blue) was separated from the AAR (not dyed blue), and the slices are stained by incubation in 1% 2,3,5-triphenyltetrazolium chloride in pH 7.4 buffer for 15 min at 37° C. Infarcted areas appeared whitish after 2,3,5-triphenyltetrazolium chloride staining, whereas non-infarcted, or viable, areas appeared reddish in colour. Then the slices were immersed in 10% formalin for 5 minutes for fixing.
The slices were photographed. The areas of infarct (2,3,5-triphenyltetrazolium chloride negative) and risk zone (2,3,5-triphenyltetrazolium chloride stained) for each slice are traced and digitized using a computerized planimetry technique. The areas of each region were estimated using computerized planimetry (program “ImageTool”)
The infarct area was divided by the area at risk to determine the ratio of the infarct area/area at risk. (IS/AAR). Data were presented as infarct size (IS) as a percentage of the AAR (i.e., % IS/AAR) for statistical analysis of cardioprotective effects (decreased % IS/AAR). The statistical comparison for in vivo infarct reduction was made with vehicle controls.
A dose-response curve for the cardioprotective effects of peptide (4), compared with vehicle (n=12), was produced with i.v. peptide (4) doses of 0.01 (n=6), 0.1 (n=12), 1.0 (n=12) μg/kg, and 0.005 (n=12) mg/kg administered 5 min before LCAO in a 1 ml/kg dosing volume as a bolus. […]

[9] = tested on: male Sprague-Dawley rats, left coronary artery occlusion (LCAO); assay: as above; format: in vivo; remark: listed apart in the source
[10] = intravenous administration, time point of 15 min
[11] = i.v., dose 8 μmol/kg, jump latency time (FIG. 4)
[12] = 0.1 μg/kg i.v. 5 min before occlusion
[13] = 5 μg/kg i.v. 5 min before occlusion

T1 sequence (A0ACM8Q262 1-400): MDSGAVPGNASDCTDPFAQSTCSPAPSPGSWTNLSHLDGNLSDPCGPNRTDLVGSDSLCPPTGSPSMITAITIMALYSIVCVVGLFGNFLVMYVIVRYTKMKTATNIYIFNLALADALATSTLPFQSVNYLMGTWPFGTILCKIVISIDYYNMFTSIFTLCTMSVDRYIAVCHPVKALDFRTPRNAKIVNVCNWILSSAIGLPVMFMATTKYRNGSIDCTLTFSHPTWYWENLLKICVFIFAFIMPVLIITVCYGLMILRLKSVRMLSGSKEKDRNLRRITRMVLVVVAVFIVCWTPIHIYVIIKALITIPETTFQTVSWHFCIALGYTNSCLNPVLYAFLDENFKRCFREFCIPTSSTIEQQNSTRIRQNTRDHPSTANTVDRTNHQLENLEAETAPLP

`CN1CC[C@]23c4c5ccc(O)c4O[C@H]2[C@@H](O)C=C[C@H]3[C@H]1C5` [Morphine, reference compound] was tested, and the ED50 ([1]; Mus musculus, 0.25 h, intravenous administration, time point of 15 min, read-out: ED50 (jump latency)) was 2.67 mg/kg and the ED50 ([2]; Mus musculus, intravenous administration, read-out: ED50 μmol/kg (dose interval)) was 18 µmol/kg.

In the case of `CC(C)NCC(O)COc1cccc2ccccc12.Cl` (stereo not drawn) [anaprilinum, reference compound], the myocardial necrosis size ([3]; comparison medicines at highest therapeutic doses, observation time 12 hours) is reported as 53.80 ± 1.90.

For “Tyr-Gly-Gly-Phe-Leu [[Leu^5]-enkephalin, reference compound]”, the “GPI Relative potency, %” value [4] was 100%, the GPIrel/MVDrel [5] was 1 and the “Duration of analgesic effect at ED60-80” value [2] was 15 min. For the same molecule, the “ED50 nmol/animal (dose interval)” value [2] was 174 (102-281) nmol/animal, the “Relative analgesic activity morphine = 1” value [2] was 0.007 and the “MVD Relative potency, %” value ([6]; [Leu^5]-enkephalin = 100) was 100%. For the same molecule, the IC50 ([6]; mouse vas deferens, electrical stimulation) was 20 ± 1 nM.

`O=C(O)CCCO` [Sodium oxybutyrate, reference compound] was tested, and the Duration of life ([7]; 1000.0 mg/kg (highest therapeutic dose) i.p. 1 min before hermetic chamber) was 15.5 ± 0.4 min and the “lifetime increase in comparison with the control experiments” value ([7]; 1000.0 mg/kg i.p.) was 24%.

“Tyr-D-Orn(Ac-Gly)-Gly-Phe(p-NO2)—NH2 [Peptide 5]” was tested, and the “analgesic effect in words” value ([1]; i.v.) was “practically similar to that of morphine” and the “ED50 (jump latency)” value [1, 10] was 1.99 mg/kg.

For `O=[N+]([O-])OCC(CO[N+](=O)[O-])O[N+](=O)[O-]` [nitroglycerine, reference compound], the myocardial necrosis size ([3]; rat, in vivo) was 54.04 ± 1.76, the CPK ([3]; rat, in vivo, 0.05 mg/kg) was 101.1 ± 6.1 units/l and the HF-CPK ([3]; rat, in vivo, 0.05 mg/kg) was 19.8 ± 1.1 units/l. It also gave a Lactate ([3]; rat, in vivo, 0.05 mg/kg) of 1.80 ± 0.09 mmol/L.

For “Tyr-D-Orn(Ac-Asn)-Gly-Phe(p-NO2)—NH2 [Peptide 3]”, the “delay of analgesic effect” value [1, 11] was 15 min, the “analgesic effect in words” value ([1]; i.v.) was “practically similar to that of morphine” and the “ED50 (jump latency)” value [1, 10] was 2.04 mg/kg.

“Tyr-Gly-Gly-Phe-Met [[Met^5]-enkephalin, reference compound]” was tested, and the “Duration of analgesic effect at ED60-80” value [2] was 15 min, the “ED50 nmol/animal (dose interval)” value [2] was 154 (90-261) nmol/animal and the “Relative analgesic activity morphine = 1” value [2] was 0.008.

With Y[dK](Ac)G[Phe(4-NO2)]-NH2 [Peptide 2] the “ED50 (jump latency)” value [1, 10] was 1.7 mg/kg and the “analgesic activity exceeding that of morphine” value ([1]; intravenous, from ED50 at 15 min) was 1.5 times.

With “Y[dDab](Ac)G[Phe(4-NO2)]-NH2 [Peptide 4]” the “time of maximum analgesic effect” value [1, 11] was 30 min, the “analgesic effect in words” value ([1]; i.v.) was “weaker than the effect of the other four peptides tested” and the “IS/AAR, % (infarct size as % of area at risk)” value (shortened to “IS/AAR, %”) ([8]; 0.01 μg/kg i.v. 5 min before occlusion) was 45.1±4.6%. For the same molecule, the “IS/AAR, %” value [8, 12] was 32.0 ± 3.5%, the “Relative Reduction of Infarct size, % (Control = 0)” value [8, 12] was 25.4% and the “IS/AAR, %” value ([8]; 1 μg/kg i.v. 5 min before occlusion) was 26.0 ±3.5%. For the same molecule, the “IS/AAR, %” value [8, 13] was 32.5 ± 2.5%, the “Relative Reduction of Infarct size, % (Control = 0)” value [8, 13] was 24.2% and the “IS/AAR, level of ischemic damage” value ([9]; 1.0 μg/kg i.v. immediately after removal of the LCAO (start of reperfusion)) was 32.5±2.4%. For the same molecule, the “infarct size as % of Area at Risk (IS/AAR)” value ([9]; doses between 0.2 μg/kg and 3.2 μg/kg, 5 min before ischemia (dose-response curve)) was “smaller than 30%”.

— patent publication US20100093643A1 (priority 2006, published 2010)
